In PMC9324262, “Selective CDK9 Inhibition by Natural Compound Toyocamycin in Cancer Cells” (Cancers, 2022):

Tests used:
YB5 cells [1] = assay: GFP reactivation in YB5 cell-based system (flow cytometry); set-up: species or system human; settings: for GFP expression in YB5 cells, adenosine analogues: Figure S2; for GFP+ cells: alone, screen control
Description: YB5 cells are derived from SW48 cells (human colon cancer cell line), and contain a single insertion of a DNA hypermethylated cytomegalovirus (CMV) promoter driving the green fluorescent protein (GFP) gene, as previously described. YB5 cells are cultured in L-15 medium supplemented with 10% fetal bovine serum and grown in log-phase in 1% CO2 atmosphere. YB5 cells were authenticated by DNA fingerprinting prior to drug screening and validation experiments. GFP expression in YB5 cells is silenced in >99.9% of the cells due to the CMV promoter DNA hypermethylation and repressive chromatin marks around the transcriptional start site. The human HCT116 colon cancer-derived GFP-reporter system, comprising a GFP gene under the control of an endogenously hypermethylated SFRP1 gene promoter, was kindly provided by Dr. Stephen Baylin (Johns Hopkins University). These cells are cultured in McCoy’s 5A medium supplemented with 10% fetal bovine serum and grown in log-phase in 5% CO2 atmosphere at 37 °C. The 451-Lu-BR melanoma cells were a kind gift from Dr. Raza Zaidi (Fels Institute for Cancer Research and Molecular Biology, Temple University School of Medicine, Philadelphia). These cells are derived from parental 451-LU cells that have acquired resistance to BRAF inhibitors. The 451-Lu-BR cells were cultured at 37 °C in Dulbecco’s Modified Eagle Medium (DMEM) supplemented with 10% fetal bovine serum, L-alanyl-L-glutamine (2 mM), and gentamycin (50 µg/mL) in 5% CO2 at 37 °C. The natural drug library (natural product set II) containing 120 compounds was obtained from the National Cancer Institute Developmental Therapeutics Program. Natural compounds were dissolved in DMSO (10 mM) in 96-well plates that were kept at −80°C until use. Toyocamycin, analogues of toyocamycin (sangivamycin, tubercidin, 3-deaza-adenosine, DZNep), CDK inhibitors, and epigenetic drugs (decitabine, SAHA, trichostatin A, depsipeptide) were purchased from Sigma-Aldrich (St. Louis, MO, USA,) for validation studies, dissolved in DMSO, and kept at −80 °C until use.
YB5 cells were seeded at 30,000 cell/mL in 96-well plates (6000 cells/well) and treated 3 days after seeding. Cells were exposed to 120 natural compounds in 5 different experimental conditions: (1) 72 h exposure at 10 µM followed by 24 h recovery period prior to analysis; (2) 24 h treatment at 50 µM prior to analysis; (3) 72 h exposure at 10 µM of the compound library followed by 24 h treatment with HDAC inhibitor trichostatin A (200 nM) prior to analysis; (4) 72 h exposure at 10 µM in simultaneous combination with decitabine (50 nM) followed by 24 h recovery period prior to analysis; and (5) 72 h treatment with decitabine (50 nM) followed by 24 h exposure with the natural compound library (50 µM) prior to analysis. The scheme of different dose schedules is shown Figure S1A. During screening, drugs and cell culture media were replaced every day. To ensure the quality and the reproducibility of the screen, each 96-well plate was designed to include 80 natural compounds, 4 untreated wells, 4 wells treated with decitabine (50 nM, 72 h), 4 wells treated with trichostatin A (200 nM, 24 h), and their combination with decitabine (50 nM, 72 h) followed by trichostatin A treatment (200 nM, 24 h) prior to flow cytometry analysis. The percentage of GFP-expressing cells in control wells (untreated or treated with known epigenetic drugs) was measured and was reproducible between different plates.
After treatment, YB5 cells were trypsinized for 15 min and resuspended in L-15 media containing propidium iodide (PI) to stain dead cells. GFP expression and PI staining were quantified by a BD LSR II flow cytometer (BD Biosciences, San Jose, CA, USA). A maximum of 10,000 cells was analyzed per well. Validations were performed using a Millipore Guava flow cytometer (EMD, Millipore, Burlington, MA, USA). […]

CDK9 = settings: cited from earlier work
YB5 cells [2] = assay: anchorage-dependent clonogenic assay; assay type: cell-based, human; settings: 10–50 nM, 72 h treatment, 2 weeks drug-free
Description: Two hundred YB5 cells were seeded per well in 6-well plates. On the following day, YB5 cells were treated with toyocamycin for 24 h or 72 h. Decitabine (10–50 nM for 72 h) was used as a positive control for the loss of clonogenic potential. Drugs and media were replaced each day. After treatment, media was removed. YB5 cells were grown in drug-free media for 2 weeks to allow visible colony formation prior to colony staining (0.5% methylene blue in 50% methanol). YB5 colonies were counted manually.

RNA-Pol II Ser2-P = assay: Western blot, RNA Pol II and phospho-Pol II Ser2; assay type: cell-based, human; settings: HCT116, 1–10 µM, 16 h
Description: YB5 cells were harvested in 50 mM Tris-HCl, 1% NP-40, 1 mM EDTA, 1 mM EGTA, 0.25% sodium deoxycholate, 150 mM NaCl, 50 mM sodium fluoride, and 1X Complete protease cocktail (Roche, Basel, Switzerland) with 1 mM PMSF. The total protein concentration was measured in all samples by standard BCA protocol (Pierce-23225, Thermo Scientific, Waltham, MA, USA) to ensure that an equal amount of protein was added to each sample. Protein extracts were run on 12% SDS–PAGE precast gels (Bio-Rad, Hercules, CA, USA, 345-0118). Proteins were transferred to polyvinylidene difluoride (PVDF) membranes in 10 mmol/L CAPS (pH-11) containing 10% methanol and detected by using specific primary antibodies, horseradish peroxidase–conjugated secondary antibodies (GE Healthcare, Chicago, IL, USA), and an enhanced chemiluminescence reagent (Pierce). PVDF membranes were incubated with specific primary antibodies (actin—A5441, Sigma, St. Louis, MO, USA; HA-tagged—H9608, Sigma; FLAG-tagged—F3165, Sigma). FLAG- and HA-tagged CDK9 plasmids were a generous gift from Dr Bassel E. Sawaya (Temple University). For CDK9 target modulation, HCT116 colon cancer cells were treated with toyocamycin or known CDK9 inhibitor BAY1251152 (Selleckchem, Houston, TX, USA). Whole cell extracts were obtained by lysing cells with 25 mM Tris (pH 7.3) and 1% sodium dodecyl sulfate (SDS). After sonication, total protein concentrations were determined using Bradford protein assay. The following primary antibodies were used to investigate the effect of CDK9 inhibition: Pol II against the N-term region (sc-55492, Santa Cruz, Dallas, TX, USA), Pol II against the C-term region (39097, Active motif, Carlsbad, CA, USA), Pol II phospho CTD ser2 (14-9802-82, Invitrogen, Waltham, MA, USA), Rb (ab181616, Abcam, Cambridge, UK), Rb phospho T826 (ab133446, Abcam, Cambridge, UK), CDK9 (ab39098, Abcam, Cambridge, UK), and actin (ab1801, Abcam, Cambridge, UK). Images were acquired with an Image Quant LAS4000 device from GE Healthcare Life Sciences. Band intensity quantifications were calculated using ImageJ software, edition 1.53 [27].

Compound | GFP expression in YB5 cells, adenosine analogues (YB5 cells [1]; 24 h) | CDK9 inhibition IC50 values (CDK9) | further results
Nc1nccc2c1ncn2C1C=C(CO)C(O)C1O (stereo not shown) [DZNep] | only sangivamycin induced GFP expression | – | –
NC(=O)c1cn([C@@H]2O[C@H](CO)[C@@H](O)[C@H]2O)c2ncnc(N)c12 [sangivamycin] | induced GFP expression in YB5 cells, but to a lesser extent than toyocamycin | – | CDK9 inhibition (CDK9): direct CDK9 inhibition; GFP expression in YB5 cells, adenosine analogues (YB5 cells [1]; 24 h, listed as Sangivamycin): weak GFP activation
COc1ccccc1-c1cc(Nc2cccc(CS(N)(=O)=O)c2)ncn1 [LDC000067] | – | low nanomolar range | –
CC(C)(C)c1cnc(CSc2cnc(NC(=O)C3CCNCC3)s2)o1 [SNS-032] | – | low nanomolar range | –
CC(/C=C/C(=O)NO)=C\[C@@H](C)C(=O)c1ccc(N(C)C)cc1 [trichostatin A] | – | – | GFP+ cells (YB5 cells [1]; 200 nM, 24 h): about 6%
Nc1n[nH]c(N)c1N=Nc1ccc(O)cc1 [CAN-508] | – | low nanomolar range | –
Nc1nc(N[C@H]2C[C@@H]3CC[C@H]2C3)sc1C(=O)c1ccccc1[N+](=O)[O-] [MC180295] | – | – | GFP fluorescence, % of YB5 cells (YB5 cells [1]; 500 nM, 48 h): about 10%
Nc1nccc2c1ncn2[C@@H]1O[C@H](CO)[C@@H](O)[C@H]1O [3-deaza-adenosine] | only sangivamycin induced GFP expression | – | –
Nc1ncn([C@H]2C[C@H](O)[C@@H](CO)O2)c(=O)n1 [decitabine, 5-aza-2′-deoxycytidine] | – | – | colony formation (YB5 cells [2]): still produced colonies; GFP+ cells (YB5 cells [1]; 50 nM, 72 h): about 15%
COc1cc(F)ccc1-c1cc(Nc2cc(CS(C)(=N)=O)ccn2)ncc1F (stereo not shown) [BAY1251152] | – | – | RNA Pol II band intensity, Pol II C-terminal antibody (RNA-Pol II Ser2-P): reduced the RNA Pol II band intensity; RNA-Pol II ser 2 phosphorylation (RNA-Pol II Ser2-P): significantly reduced
CC(=O)N[C@@H]1CCC[C@H](C(=O)Nc2cc(-c3cnn4c3CC(C)(C)C4)c(Cl)cn2)C1 [AZD-4573] | – | low nanomolar range | –
Nc1ncnc2c1ccn2[C@@H]1O[C@H](CO)[C@@H](O)[C@H]1O [tubercidin] | only sangivamycin induced GFP expression | – | –
